Measured values reported in article PMC11871066, “Structure-based discovery of hydrocarbon-stapled paxillin peptides that block FAK scaffolding in cancer” (Nature Communications, 2025).

How the values were obtained:
Assay in all cases: Eurofins KINOMEscan profiling, 97 kinases
[1] = target: 97 kinases (kinase named in endpoint) (Homo sapiens, UniProt O15111); conditions: read-out: % Ctrl, IKK-alpha
[2] = target: 97 kinases (kinase named in endpoint) (Homo sapiens, UniProt Q86UX6); conditions: read-out: % Ctrl, YANK3
[3] = target: 97 kinases (kinase named in endpoint) (Homo sapiens, UniProt P24941); conditions: read-out: % Ctrl, CDK2
[4] = target: 97 kinases (kinase named in endpoint) (Homo sapiens, UniProt Q9H4B4); conditions: read-out: % Ctrl, PLK3
[5] = target: 97 kinases (kinase named in endpoint) (Homo sapiens, UniProt P06213); conditions: read-out: % Ctrl, INSR
[6] = target: 97 kinases (kinase named in endpoint) (Homo sapiens, UniProt P08069); conditions: read-out: % Ctrl, IGF1R
[7] = target: 97 kinases (kinase named in endpoint) (Homo sapiens, UniProt Q9HBH9); conditions: read-out: % Ctrl, MKNK2
[8] = target: 97 kinases (kinase named in endpoint) (Homo sapiens, UniProt O15075); conditions: read-out: % Ctrl, DCAMKL1
97 kinases (kinase named in endpoint) (Homo sapiens, UniProt O15075), sequence (O15075 whole entry): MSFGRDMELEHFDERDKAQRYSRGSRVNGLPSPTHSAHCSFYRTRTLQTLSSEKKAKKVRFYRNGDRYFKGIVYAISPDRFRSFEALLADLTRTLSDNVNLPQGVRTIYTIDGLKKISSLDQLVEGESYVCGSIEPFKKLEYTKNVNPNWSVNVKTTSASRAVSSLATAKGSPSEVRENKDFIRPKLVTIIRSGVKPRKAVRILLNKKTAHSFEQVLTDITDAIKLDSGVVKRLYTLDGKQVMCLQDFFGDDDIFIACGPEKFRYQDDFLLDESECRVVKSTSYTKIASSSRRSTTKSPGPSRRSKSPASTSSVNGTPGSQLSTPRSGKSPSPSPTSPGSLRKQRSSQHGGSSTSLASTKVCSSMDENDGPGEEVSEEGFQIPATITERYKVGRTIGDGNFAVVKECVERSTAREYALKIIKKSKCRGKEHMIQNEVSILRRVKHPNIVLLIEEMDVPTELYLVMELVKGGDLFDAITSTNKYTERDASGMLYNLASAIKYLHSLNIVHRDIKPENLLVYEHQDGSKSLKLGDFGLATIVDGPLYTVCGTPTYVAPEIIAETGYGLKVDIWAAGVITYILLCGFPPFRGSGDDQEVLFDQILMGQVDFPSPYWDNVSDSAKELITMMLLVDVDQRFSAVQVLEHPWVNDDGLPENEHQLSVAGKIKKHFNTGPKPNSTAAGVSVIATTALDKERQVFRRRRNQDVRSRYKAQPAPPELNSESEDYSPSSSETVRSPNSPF

[9] = target: 97 kinases (kinase named in endpoint) (Homo sapiens, UniProt Q86V86); conditions: read-out: % Ctrl, PIM3
[10] = target: 97 kinases (kinase named in endpoint) (Homo sapiens, UniProt P04629); conditions: read-out: % Ctrl, TRKA
[11] = target: 97 kinases (kinase named in endpoint) (Homo sapiens, UniProt P22607); conditions: read-out: % Ctrl, FGFR3
[12] = target: 97 kinases (kinase named in endpoint) (Homo sapiens, UniProt Q13873); conditions: read-out: % Ctrl, BMPR2
97 kinases (kinase named in endpoint) (Homo sapiens, UniProt Q13873), sequence (Q13873 27-1038): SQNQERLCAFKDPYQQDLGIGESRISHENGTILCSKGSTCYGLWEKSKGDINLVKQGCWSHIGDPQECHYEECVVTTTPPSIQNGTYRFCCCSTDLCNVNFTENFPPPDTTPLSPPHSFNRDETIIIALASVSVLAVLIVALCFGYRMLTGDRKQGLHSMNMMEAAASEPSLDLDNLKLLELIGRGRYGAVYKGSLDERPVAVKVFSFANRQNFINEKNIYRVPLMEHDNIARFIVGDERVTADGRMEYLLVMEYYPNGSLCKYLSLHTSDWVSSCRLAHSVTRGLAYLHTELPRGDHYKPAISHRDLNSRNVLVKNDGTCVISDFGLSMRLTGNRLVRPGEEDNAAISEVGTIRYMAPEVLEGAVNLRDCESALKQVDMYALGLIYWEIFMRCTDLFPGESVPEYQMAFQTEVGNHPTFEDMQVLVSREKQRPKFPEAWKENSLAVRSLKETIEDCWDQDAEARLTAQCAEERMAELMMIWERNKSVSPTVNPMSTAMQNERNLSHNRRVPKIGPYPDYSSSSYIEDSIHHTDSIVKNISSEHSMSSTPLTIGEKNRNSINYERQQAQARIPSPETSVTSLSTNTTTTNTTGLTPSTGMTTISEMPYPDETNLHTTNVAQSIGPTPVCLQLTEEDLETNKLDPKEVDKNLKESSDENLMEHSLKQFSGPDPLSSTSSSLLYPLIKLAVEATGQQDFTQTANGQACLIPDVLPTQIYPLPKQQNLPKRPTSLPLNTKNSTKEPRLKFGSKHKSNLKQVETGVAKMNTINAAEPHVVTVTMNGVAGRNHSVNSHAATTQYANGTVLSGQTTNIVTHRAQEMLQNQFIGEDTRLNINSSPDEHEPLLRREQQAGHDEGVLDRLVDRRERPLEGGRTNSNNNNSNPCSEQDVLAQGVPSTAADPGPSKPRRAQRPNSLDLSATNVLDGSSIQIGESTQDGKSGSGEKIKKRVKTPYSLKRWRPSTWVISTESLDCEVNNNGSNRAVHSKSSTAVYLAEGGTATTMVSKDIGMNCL

[13] = target: 97 kinases (kinase named in endpoint) (Homo sapiens, UniProt P00533); conditions: read-out: % Ctrl, EGFR
[14] = target: 97 kinases (kinase named in endpoint) (Homo sapiens, UniProt P50750); conditions: read-out: % Ctrl, CDK9
97 kinases (kinase named in endpoint) (Homo sapiens, UniProt P50750), sequence (P50750 whole entry): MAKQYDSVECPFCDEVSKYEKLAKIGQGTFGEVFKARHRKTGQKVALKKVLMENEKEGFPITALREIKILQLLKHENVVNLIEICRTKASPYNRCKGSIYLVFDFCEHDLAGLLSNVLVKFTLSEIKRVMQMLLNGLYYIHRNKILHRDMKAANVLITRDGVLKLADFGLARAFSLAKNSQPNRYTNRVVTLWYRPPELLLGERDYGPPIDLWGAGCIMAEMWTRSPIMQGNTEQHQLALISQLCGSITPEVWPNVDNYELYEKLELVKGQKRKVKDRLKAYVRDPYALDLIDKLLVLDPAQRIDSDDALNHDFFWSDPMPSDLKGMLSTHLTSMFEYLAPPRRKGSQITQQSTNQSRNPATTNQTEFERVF

[15] = target: 97 kinases (kinase named in endpoint) (Homo sapiens, UniProt P35968); conditions: read-out: % Ctrl, VEGFR2
[16] = target: 97 kinases (kinase named in endpoint) (Homo sapiens, UniProt Q15303); conditions: read-out: % Ctrl, ERBB4
[17] = target: 97 kinases (kinase named in endpoint) (Homo sapiens, UniProt P42336); conditions: read-out: % Ctrl, PIK3CA
[18] = target: 97 kinases (kinase named in endpoint) (Homo sapiens, UniProt O60674); conditions: read-out: % Ctrl, JAK2(JH1domain-catalytic)
97 kinases (kinase named in endpoint) (Homo sapiens, UniProt O60674), sequence (O60674 whole entry): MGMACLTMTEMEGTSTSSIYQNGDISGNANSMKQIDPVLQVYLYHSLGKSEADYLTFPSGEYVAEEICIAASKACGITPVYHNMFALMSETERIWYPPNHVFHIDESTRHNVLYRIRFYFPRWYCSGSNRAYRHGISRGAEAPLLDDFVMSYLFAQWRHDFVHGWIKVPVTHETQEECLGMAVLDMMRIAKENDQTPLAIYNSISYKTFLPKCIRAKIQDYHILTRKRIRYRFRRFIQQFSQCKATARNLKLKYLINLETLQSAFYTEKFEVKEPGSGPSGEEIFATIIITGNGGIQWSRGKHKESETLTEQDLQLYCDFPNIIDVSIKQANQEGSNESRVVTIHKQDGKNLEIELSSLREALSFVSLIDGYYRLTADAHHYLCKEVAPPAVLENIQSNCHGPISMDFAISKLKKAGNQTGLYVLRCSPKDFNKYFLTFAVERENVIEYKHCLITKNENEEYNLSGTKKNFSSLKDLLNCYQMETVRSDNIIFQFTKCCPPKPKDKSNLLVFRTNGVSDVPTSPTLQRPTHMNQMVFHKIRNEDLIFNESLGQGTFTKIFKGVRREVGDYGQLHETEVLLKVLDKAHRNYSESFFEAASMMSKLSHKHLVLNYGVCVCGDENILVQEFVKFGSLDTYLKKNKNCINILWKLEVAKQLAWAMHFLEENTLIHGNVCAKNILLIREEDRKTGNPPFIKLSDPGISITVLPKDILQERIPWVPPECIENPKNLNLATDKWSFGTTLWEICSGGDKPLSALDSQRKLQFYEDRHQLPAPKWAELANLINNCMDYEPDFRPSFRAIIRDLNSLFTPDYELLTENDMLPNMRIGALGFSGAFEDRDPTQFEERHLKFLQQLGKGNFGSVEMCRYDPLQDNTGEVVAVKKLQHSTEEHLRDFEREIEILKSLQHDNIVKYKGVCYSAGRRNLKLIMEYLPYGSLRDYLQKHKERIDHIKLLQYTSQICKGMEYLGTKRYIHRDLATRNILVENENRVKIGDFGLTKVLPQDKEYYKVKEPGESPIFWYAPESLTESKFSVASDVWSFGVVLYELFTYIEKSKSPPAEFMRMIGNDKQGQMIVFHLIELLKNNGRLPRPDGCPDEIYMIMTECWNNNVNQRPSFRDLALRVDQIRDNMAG

[19] = target: 97 kinases (kinase named in endpoint) (Homo sapiens, UniProt Q15831); conditions: read-out: % Ctrl, LKB1
[20] = target: 97 kinases (kinase named in endpoint) (Homo sapiens, UniProt P07333); conditions: read-out: % Ctrl, CSF1R
[21] = target: 97 kinases (kinase named in endpoint) (Homo sapiens, UniProt Q9BWU1); conditions: read-out: % Ctrl, CDK11
97 kinases (kinase named in endpoint) (Homo sapiens, UniProt Q9BWU1), sequence (Q9BWU1 whole entry): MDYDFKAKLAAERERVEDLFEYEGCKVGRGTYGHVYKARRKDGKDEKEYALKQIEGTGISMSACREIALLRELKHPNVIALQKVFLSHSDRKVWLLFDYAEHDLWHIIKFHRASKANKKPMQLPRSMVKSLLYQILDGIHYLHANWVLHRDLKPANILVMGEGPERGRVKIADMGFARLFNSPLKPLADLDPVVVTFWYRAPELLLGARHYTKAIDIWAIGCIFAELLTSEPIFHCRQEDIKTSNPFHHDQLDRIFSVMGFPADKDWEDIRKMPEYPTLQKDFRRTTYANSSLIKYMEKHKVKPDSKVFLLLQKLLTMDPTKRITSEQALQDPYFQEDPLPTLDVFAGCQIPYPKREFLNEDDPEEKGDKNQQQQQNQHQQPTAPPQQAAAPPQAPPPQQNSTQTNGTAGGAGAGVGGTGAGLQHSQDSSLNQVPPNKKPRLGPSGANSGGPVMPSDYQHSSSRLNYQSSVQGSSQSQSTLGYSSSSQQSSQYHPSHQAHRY

[22] = target: 97 kinases (kinase named in endpoint) (Homo sapiens, UniProt Q96GD4); conditions: read-out: % Ctrl, AURKB
97 kinases (kinase named in endpoint) (Homo sapiens, UniProt Q96GD4), sequence (Q96GD4 whole entry): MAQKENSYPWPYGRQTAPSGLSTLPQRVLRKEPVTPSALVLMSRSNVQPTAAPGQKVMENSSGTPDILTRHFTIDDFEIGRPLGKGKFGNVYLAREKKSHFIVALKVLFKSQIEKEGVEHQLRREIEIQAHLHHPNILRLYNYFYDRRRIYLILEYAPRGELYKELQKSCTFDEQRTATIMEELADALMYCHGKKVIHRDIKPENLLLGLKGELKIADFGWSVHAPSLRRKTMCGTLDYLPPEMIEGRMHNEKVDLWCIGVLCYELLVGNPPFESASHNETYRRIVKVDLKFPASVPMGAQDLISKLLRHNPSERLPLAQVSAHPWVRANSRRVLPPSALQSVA

[23] = target: 97 kinases (kinase named in endpoint) (Homo sapiens, UniProt P30530); conditions: read-out: % Ctrl, AXL
[24] = target: 97 kinases (kinase named in endpoint) (Homo sapiens, UniProt P53350); conditions: read-out: % Ctrl, PLK1
[25] = target: 97 kinases (kinase named in endpoint) (Homo sapiens, UniProt P50613); conditions: read-out: % Ctrl, CDK7
97 kinases (kinase named in endpoint) (Homo sapiens, UniProt P50613), sequence (P50613 whole entry): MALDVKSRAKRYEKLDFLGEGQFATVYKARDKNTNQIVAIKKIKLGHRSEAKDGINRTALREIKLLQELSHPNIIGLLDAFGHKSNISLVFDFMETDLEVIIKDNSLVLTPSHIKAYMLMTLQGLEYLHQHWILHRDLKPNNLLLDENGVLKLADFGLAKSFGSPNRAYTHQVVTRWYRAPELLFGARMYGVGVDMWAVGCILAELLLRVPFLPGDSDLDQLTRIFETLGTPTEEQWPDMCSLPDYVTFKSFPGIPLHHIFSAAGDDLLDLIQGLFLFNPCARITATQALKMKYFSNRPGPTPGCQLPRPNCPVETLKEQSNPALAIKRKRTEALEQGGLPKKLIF

[26] = target: 97 kinases (kinase named in endpoint) (Homo sapiens, UniProt O15530); conditions: read-out: % Ctrl, PDPK1
[27] = target: 97 kinases (kinase named in endpoint) (Homo sapiens, UniProt P27361); conditions: read-out: % Ctrl, ERK1
[28] = target: 97 kinases (kinase named in endpoint) (Homo sapiens, UniProt P80192); conditions: read-out: % Ctrl, MLK1

SMILES | remaining binding at 1 µM [1] [%] | remaining binding at 1 µM [2] [%] | remaining binding at 1 µM [3] [%] | remaining binding at 1 µM [4] [%] | remaining binding at 1 µM [5] [%] | remaining binding at 1 µM [6] [%] | remaining binding at 1 µM [7] [%] | remaining binding at 1 µM [8] [%] | remaining binding at 1 µM [9] [%] | remaining binding at 1 µM [10] [%] | remaining binding at 1 µM [11] [%] | remaining binding at 1 µM [12] [%] | remaining binding at 1 µM [13] [%] | remaining binding at 1 µM [14] [%] | remaining binding at 1 µM [15] [%] | remaining binding at 1 µM [16] [%] | remaining binding at 1 µM [17] [%] | remaining binding at 1 µM [18] [%] | remaining binding at 1 µM [19] [%] | remaining binding at 1 µM [20] [%] | also measured
CNC(=O)c1ccc(Nc2ncc(C(F)(F)F)c(NCc3nccnc3N(C)S(C)(=O)=O)n2)cc1 [defactinib] | 100 | 89 | 63 | 28 | 61 | 71 | 100 | 47 | 40 | 1 | 45 | 25 | 92 | 90 | 37 | 100 | 100 | 0.1 | 90 | 72 | remaining binding at 1 µM [21]: 97%; remaining binding at 1 µM [22]: 13%; remaining binding at 1 µM [23]: 3.6%; remaining binding at 1 µM [24]: 17%; remaining binding at 1 µM [25]: 22%; remaining binding at 1 µM [26]: 50%; remaining binding at 1 µM [27]: 88%; remaining binding at 1 µM [28]: 6.7%
CCCCCCCCCCCCCC(=O)N[C@@H](CC(N)=O)C(=O)N[C@@H](CC(C)C)C(=O)N[C@]1(C)CCCCCCC=CCCC[C@@](C)(C(=O)N[C@@H](CCC(=O)O)C(=O)N[C@@H](CC(C)C)C(=O)N[C@@H](CC(N)=O)C(N)=O)NC(=O)[C@H](CC(C)C)NC(=O)[C@H](CC(C)C)NC(=O)[C@H](CCCNC(=N)N)NC(=O)[C@H](CC(=O)O)NC(=O)[C@H](CC(C)C)NC(=O)[C@H](CCC(=O)O)NC1=O [compound 2012] | 100 | 91 | 88 | 94 | 100 | 100 | 100 | 86 | 100 | 100 | 95 | 100 | 93 | 100 | 100 | 83 | 100 | 87 | 85 | 95 | remaining binding at 1 µM [21]: 87%; remaining binding at 1 µM [22]: 100%; remaining binding at 1 µM [23]: 74%; remaining binding at 1 µM [24]: 89%; remaining binding at 1 µM [25]: 69%; remaining binding at 1 µM [26]: 99%; remaining binding at 1 µM [27]: 100%; remaining binding at 1 µM [28]: 100%
